From publication PMC9596378, “Discovery and molecular basis of subtype-selective cyclophilin inhibitors” (Nature Chemical Biology, 2022)
Several values for one entry are separate records, joined by “and”; a condition that tells them apart may be missing. Equal entries are not always repeated. Where two headings read alike, the source gives them in different places.

Legend:
Cyp40 = Cyp40 (Homo sapiens, UniProt Q08752); assay: Chymotrypsin coupled prolyl-isomerase assay; details: for Cyp40 prolyl-isomerase assay raw dose-response value: Fig. 3b source data, replicates
Protocol: (§1) Adapting a previously described protocol, with an Agilent Bravo Velocity 11 with a 384ST head, 90 µL assay buffer (25 mM HEPES pH 7.3, 100 mM NaCl, 0.01% Triton X-100) containing 5.28 nM cyclophilin was added into a flat, clear-bottom, black 384-well plate pre-chilled in a Corning CoolBox at 2–3 °C. Five microliters of compound pre-dissolved in 5% DMSO/assay buffer was then added to appropriate wells and incubated at 2–3 °C for 5 min. Five microliters of 0.5 mM α-chymotrypsin from bovine pancreas (Type II, lyophilized powder, Millipore-Sigma) in 20% 1 mM HCl/Assay Buffer was then added to each well and incubated at 2–3 °C for 5 min. The plate was then quickly transferred to a FLIPR Tetra High-Throughput Cellular Screening System (Molecular Devices). Using the internal liquid handling system of the FLIPR, 1 µL 0.5 mM Suc-AAPF-AMC (Chymotrypsin Substrate II, Millipore-Sigma) dissolved in 0.55 M LiCl/2,2,2-trifluoroethanol was added to each well, which was then mixed for 5 s, followed by immediate fluorescence measurements every 1 s for 330 s using a 360–380 nm excitation LED module and a 400–460 nm emission filter. Final concentrations of the plate include 5 nM cyclophilin, 0.25% DMSO, 25 µM α-chymotrypsin, 5 µM Suc-AAPF-AMC. Raw fluorescence data was analyzed by non-linear regression analysis with Prism v.9 by fitting one-phase association curves to each well. […] Rate constants calculated for each well (s^−1) were then normalized to substrate only (no prolyl-isomerase) and enzyme + substrate only controls. IC50 values were calculated as the value at which 50% inhibition was achieved on the non-linear regression fitted curve of each compound.

CypD = CypD (Homo sapiens, UniProt P30405); assay: Chymotrypsin coupled prolyl-isomerase assay; details: for CypD prolyl-isomerase assay raw dose-response value: Fig. 3b source data, replicates
CypB = biological target: T1, CypB (Homo sapiens, UniProt P23284); assay: biochemical; details: for CypB prolyl-isomerase assay raw dose-response value: Fig. 3b source data, replicates
T1 construct: PPIB (UniProtKB Entry P23284: residues 34–216); His6 with TEV site (2BT vector leader) (N); made in house; host or cells: E. coli BL21(DE3)
Protocol: as §1

NKTR = biological target: T2, NKTR (Homo sapiens, UniProt P30414); assay: Chymotrypsin coupled prolyl-isomerase assay; format: biochemical; details: for NKTR prolyl-isomerase assay raw dose-response value: Fig. 3b source data, replicates
T2 construct: NKTR (UniProtKB Entry P30414: residues 7–179); host or cells: E. coli BL21(DE3)
T2 sequence (P30414 7-179): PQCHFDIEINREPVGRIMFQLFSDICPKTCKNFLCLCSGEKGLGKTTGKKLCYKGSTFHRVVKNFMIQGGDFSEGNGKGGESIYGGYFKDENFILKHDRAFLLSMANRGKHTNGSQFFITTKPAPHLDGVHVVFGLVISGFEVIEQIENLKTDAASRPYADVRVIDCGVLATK
Protocol: Adapting a previously described protocol[51], with an Agilent Bravo Velocity 11 with a 384ST head, 90 µL assay buffer (25 mM HEPES pH 7.3, 100 mM NaCl, 0.01% Triton X-100) containing 5.28 nM cyclophilin was added into a flat, clear-bottom, black 384-well plate pre-chilled in a Corning CoolBox at 2–3 °C. Five microliters of compound pre-dissolved in 5% DMSO/assay buffer was then added to appropriate wells and incubated at 2–3 °C for 5 min. Five microliters of 0.5 mM α-chymotrypsin from bovine pancreas (Type II, lyophilized powder, Millipore-Sigma) in 20% 1 mM HCl/Assay Buffer was then added to each well and incubated at 2–3 °C for 5 min. […] Using the internal liquid handling system of the FLIPR, 1 µL 0.5 mM Suc-AAPF-AMC (Chymotrypsin Substrate II, Millipore-Sigma) dissolved in 0.55 M LiCl/2,2,2-trifluoroethanol was added to each well, which was then mixed for 5 s, followed by immediate fluorescence measurements every 1 s for 330 s using a 360–380 nm excitation LED module and a 400–460 nm emission filter. Final concentrations of the plate include 5 nM cyclophilin, 0.25% DMSO, 25 µM α-chymotrypsin, 5 µM Suc-AAPF-AMC. Raw fluorescence data was analyzed by non-linear regression analysis with Prism v.9 by fitting one-phase association curves to each well. Analyses were halted after the calculated maximum fluorescent value owing to observed fluorescent bleaching during the sustained fluorescent plateau. Rate constants calculated for each well (s^−1) were then normalized to substrate only (no prolyl-isomerase) and enzyme + substrate only controls. IC50 values were calculated as the value at which 50% inhibition was achieved on the non-linear regression fitted curve of each compound.

PPIL1 = biological target: T3, PPIL1 (Homo sapiens, UniProt Q9Y3C6); assay: Chymotrypsin coupled prolyl-isomerase assay; format: biochemical; details: for PPIL1 prolyl-isomerase assay raw dose-response value: Fig. 3b source data, replicates
T3 construct: PPIL1 (UniProtKB Entry Q9Y3C6: residues 1–166); made in house; host or cells: E. coli BL21(DE3)
T3 sequence (Q9Y3C6 1-166): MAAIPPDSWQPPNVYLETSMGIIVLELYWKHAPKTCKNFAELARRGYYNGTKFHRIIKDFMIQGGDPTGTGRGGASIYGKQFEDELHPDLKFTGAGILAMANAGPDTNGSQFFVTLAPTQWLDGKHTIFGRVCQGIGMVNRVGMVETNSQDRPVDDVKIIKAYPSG

PPWD1 = biological target: T4, PPWD1 (Homo sapiens, UniProt Q96BP3); assay: Chymotrypsin coupled prolyl-isomerase assay; format: biochemical; details: for PPWD1 prolyl-isomerase assay raw dose-response value: Fig. 3b source data, replicates
T4 construct: PPWD1 (UniProtKB Entry Q96BP3: residues 473–646); host or cells: E. coli BL21(DE3)
T4 sequence (Q96BP3 473-646): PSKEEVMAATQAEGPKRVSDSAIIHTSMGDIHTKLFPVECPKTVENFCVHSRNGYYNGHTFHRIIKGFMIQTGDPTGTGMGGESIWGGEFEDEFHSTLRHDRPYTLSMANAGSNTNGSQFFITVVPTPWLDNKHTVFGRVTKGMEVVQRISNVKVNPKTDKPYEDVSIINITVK
Protocol: Five microliters of compound pre-dissolved in 5% DMSO/assay buffer was then added to appropriate wells and incubated at 2–3 °C for 5 min. Five microliters of 0.5 mM α-chymotrypsin from bovine pancreas (Type II, lyophilized powder, Millipore-Sigma) in 20% 1 mM HCl/Assay Buffer was then added to each well and incubated at 2–3 °C for 5 min. The plate was then quickly transferred to a FLIPR Tetra High-Throughput Cellular Screening System (Molecular Devices). Using the internal liquid handling system of the FLIPR, 1 µL 0.5 mM Suc-AAPF-AMC (Chymotrypsin Substrate II, Millipore-Sigma) dissolved in 0.55 M LiCl/2,2,2-trifluoroethanol was added to each well, which was then mixed for 5 s, followed by immediate fluorescence measurements every 1 s for 330 s using a 360–380 nm excitation LED module and a 400–460 nm emission filter. […] Raw fluorescence data was analyzed by non-linear regression analysis with Prism v.9 by fitting one-phase association curves to each well. Analyses were halted after the calculated maximum fluorescent value owing to observed fluorescent bleaching during the sustained fluorescent plateau. Rate constants calculated for each well (s^−1) were then normalized to substrate only (no prolyl-isomerase) and enzyme + substrate only controls.

Sequence of Cyp40 (Q08752 1-183): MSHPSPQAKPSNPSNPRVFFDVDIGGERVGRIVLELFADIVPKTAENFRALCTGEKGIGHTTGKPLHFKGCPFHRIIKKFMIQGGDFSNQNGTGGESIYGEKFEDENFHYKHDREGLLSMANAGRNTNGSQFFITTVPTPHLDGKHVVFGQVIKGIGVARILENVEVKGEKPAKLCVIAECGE
Sequence of CypD (P30405 45-207): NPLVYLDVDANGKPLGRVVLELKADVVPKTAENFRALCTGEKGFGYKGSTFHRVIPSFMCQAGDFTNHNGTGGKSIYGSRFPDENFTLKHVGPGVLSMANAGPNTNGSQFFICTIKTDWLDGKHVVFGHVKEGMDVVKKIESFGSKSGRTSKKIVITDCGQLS
T1 sequence (P23284 34-216): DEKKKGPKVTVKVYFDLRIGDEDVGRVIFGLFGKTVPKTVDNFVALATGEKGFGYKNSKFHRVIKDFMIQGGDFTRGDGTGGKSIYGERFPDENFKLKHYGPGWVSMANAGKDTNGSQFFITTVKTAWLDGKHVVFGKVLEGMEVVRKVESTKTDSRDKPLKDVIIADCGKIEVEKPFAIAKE

NCCOCCNC(=O)[C@@H]1CCNC(=O)/C=C/C(=O)N2CCC[C@](Cc3ccccc3)(C2)C(=O)N[C@@H](Cc2ccc(-c3ccc(CCC(=O)O)cc3)cc2)C(=O)NCc2ccccc2CC(=O)N1 [Compound B23]
Cyp40 prolyl-isomerase assay raw dose-response value (Cyp40; Dose 0.0201875 µM): 0.0705 and 0.08875 and 0.06706
Cyp40 prolyl-isomerase assay raw dose-response value (Cyp40; Dose 0.0605624 µM): 0.06428 and 0.07232 and 0.08253
Cyp40 prolyl-isomerase assay raw dose-response value (Cyp40; Dose 0.181687 µM): 0.08019 and 0.07121 and 0.08682
Cyp40 prolyl-isomerase assay raw dose-response value (Cyp40; Dose 0.545062 µM): 0.05956 and 0.06358 and 0.0778
Cyp40 prolyl-isomerase assay raw dose-response value (Cyp40; Dose 1.63519 µM): 0.04659 and 0.04863 and 0.05555
Cyp40 prolyl-isomerase assay raw dose-response value (Cyp40; Dose 4.90556 µM): 0.02767 and 0.03026 and 0.03081
Cyp40 prolyl-isomerase assay raw dose-response value (Cyp40; Dose 14.7167 µM): 0.0182 and 0.01915 and 0.02408
Cyp40 prolyl-isomerase assay raw dose-response value (Cyp40; Dose 44.15 µM): 0.01601 and 0.01375 and 0.01814
IC50 (Cyp40; Wild-Type Cyclophilin Prolyl Isomerase Inhibition IC50 Values, Cyp40, wild-type Cyp40): 1700 nM
IC50 (CypD): 7.8 nM
CypD prolyl-isomerase assay raw dose-response value (CypD; Dose 0.000457247 µM): 0.08239 and 0.08493 and 0.09684
CypD prolyl-isomerase assay raw dose-response value (CypD; Dose 0.00137174 µM): 0.07973 and 0.07546 and 0.07833
CypD prolyl-isomerase assay raw dose-response value (CypD; Dose 0.00411523 µM): 0.06213 and 0.06183 and 0.0629
CypD prolyl-isomerase assay raw dose-response value (CypD; Dose 0.0123457 µM): 0.03857 and 0.03915 and 0.03469
CypD prolyl-isomerase assay raw dose-response value (CypD; Dose 0.037037 µM): 0.02379 and 0.02491 and 0.0225
CypD prolyl-isomerase assay raw dose-response value (CypD; Dose 0.111111 µM): 0.01572 and 0.01536 and 0.01393
CypD prolyl-isomerase assay raw dose-response value (CypD; Dose 0.333333 µM): 0.01408 and 0.01283 and 0.01168
CypD prolyl-isomerase assay raw dose-response value (CypD; Dose 1 µM): 0.01156 and 0.01128 and 0.01193
selectivity for CypD over CypE and CypB (CypD; prolyl-isomerase IC50): ~ 3 fold
IC50 (CypB; CypB (comparator for CypB E121S), read-out: Mutant Cyclophilin Prolyl Isomerase Inhibition IC50 Values, CypB): 22 nM
CypB prolyl-isomerase assay raw dose-response value (CypB; Dose 0.00457247 µM): 0.0629 and 0.06607 and 0.09046
CypB prolyl-isomerase assay raw dose-response value (CypB; Dose 0.0137174 µM): 0.04838 and 0.05763 and 0.06969
CypB prolyl-isomerase assay raw dose-response value (CypB; Dose 0.0411523 µM): 0.04508 and 0.04072 and 0.05012
CypB prolyl-isomerase assay raw dose-response value (CypB; Dose 0.123457 µM): 0.03305 and 0.03113 and 0.02819
CypB prolyl-isomerase assay raw dose-response value (CypB; Dose 0.37037 µM): 0.02119 and 0.01977 and 0.01945
CypB prolyl-isomerase assay raw dose-response value (CypB; Dose 1.11111 µM): 0.01691 and 0.01533 and 0.01651
CypB prolyl-isomerase assay raw dose-response value (CypB; Dose 3.33333 µM): 0.01532 and 0.01471 and 0.0137
CypB prolyl-isomerase assay raw dose-response value (CypB; Dose 10 µM): 0.01585 and 0.0132 and 0.01359
IC50 (CypB; prolyl-isomerase inhibition, 5 nM cyclophilin, read-out: IC50 CypB): 22 ± 4 nM
IC50 (CypB; prolyl-isomerase inhibition, read-out: IC50 CypB): 22 nM
IC50 (CypB; wild-type CypB, read-out: Wild-Type Cyclophilin Prolyl Isomerase Inhibition IC50 Values, CypB): 22 nM
NKTR prolyl-isomerase assay raw dose-response value (NKTR; Dose 0.0201875 µM): 0.03059 and 0.03481 and 0.04051
NKTR prolyl-isomerase assay raw dose-response value (NKTR; Dose 0.0605624 µM): 0.03143 and 0.03531 and 0.03914
NKTR prolyl-isomerase assay raw dose-response value (NKTR; Dose 0.181687 µM): 0.02923 and 0.03481 and 0.03355
NKTR prolyl-isomerase assay raw dose-response value (NKTR; Dose 0.545062 µM): 0.03762 and 0.03481 and 0.03206
NKTR prolyl-isomerase assay raw dose-response value (NKTR; Dose 1.63519 µM): 0.03593 and 0.02854 and 0.03455
NKTR prolyl-isomerase assay raw dose-response value (NKTR; Dose 4.90556 µM): 0.0369 and 0.03251 and 0.03563
NKTR prolyl-isomerase assay raw dose-response value (NKTR; Dose 14.7167 µM): 0.03118 and 0.02949 and 0.02947
NKTR prolyl-isomerase assay raw dose-response value (NKTR; Dose 44.15 µM): 0.02842 and 0.02625 and 0.02899
IC50 (NKTR; wild-type NKTR, read-out: Wild-Type Cyclophilin Prolyl Isomerase Inhibition IC50 Values, NKTR): > 100000 nM
PPIL1 prolyl-isomerase assay raw dose-response value (PPIL1; Dose 0.0201875 µM): 0.07231 and 0.05967 and 0.06308
PPIL1 prolyl-isomerase assay raw dose-response value (PPIL1; Dose 0.0605624 µM): 0.05364 and 0.0572 and 0.05937
PPIL1 prolyl-isomerase assay raw dose-response value (PPIL1; Dose 0.181687 µM): 0.04207 and 0.04374 and 0.05902
PPIL1 prolyl-isomerase assay raw dose-response value (PPIL1; Dose 0.545062 µM): 0.02667 and 0.03161 and 0.02807
PPIL1 prolyl-isomerase assay raw dose-response value (PPIL1; Dose 1.63519 µM): 0.01818 and 0.02247 and 0.01913
PPIL1 prolyl-isomerase assay raw dose-response value (PPIL1; Dose 4.90556 µM): 0.01354 and 0.01399 and 0.01299
PPIL1 prolyl-isomerase assay raw dose-response value (PPIL1; Dose 14.7167 µM): 0.01244 and 0.01258 and 0.01177
PPIL1 prolyl-isomerase assay raw dose-response value (PPIL1; Dose 44.15 µM): 0.01521 and 0.01086 and 0.01169
IC50 (PPIL1; wild-type PPIL1, read-out: Wild-Type Cyclophilin Prolyl Isomerase Inhibition IC50 Values, PPIL1): 130 nM
PPWD1 prolyl-isomerase assay raw dose-response value (PPWD1; Dose 0.0201875 µM): 0.05033 and 0.05427 and 0.05661
PPWD1 prolyl-isomerase assay raw dose-response value (PPWD1; Dose 0.0605624 µM): 0.05286 and 0.05252 and 0.05358
PPWD1 prolyl-isomerase assay raw dose-response value (PPWD1; Dose 0.181687 µM): 0.05234 and 0.04225 and 0.05023
PPWD1 prolyl-isomerase assay raw dose-response value (PPWD1; Dose 0.545062 µM): 0.05186 and 0.04473 and 0.04345
PPWD1 prolyl-isomerase assay raw dose-response value (PPWD1; Dose 1.63519 µM): 0.04986 and 0.04682 and 0.05314
PPWD1 prolyl-isomerase assay raw dose-response value (PPWD1; Dose 4.90556 µM): 0.03903 and 0.03772 and 0.04075
PPWD1 prolyl-isomerase assay raw dose-response value (PPWD1; Dose 14.7167 µM): 0.03486 and 0.03306 and 0.03245
PPWD1 prolyl-isomerase assay raw dose-response value (PPWD1; Dose 44.15 µM): 0.02892 and 0.02371 and 0.02381
IC50 (PPWD1; wild-type PPWD1, read-out: Wild-Type Cyclophilin Prolyl Isomerase Inhibition IC50 Values, PPWD1): 11000 nM
